# Experimental data published in patent US20260294947A1, “FUCOSYLATED MAMMALIAN MILK OLIGOSACCHARIDE FOR USE IN THE PREVENTION OR TREATMENT OF SHIPPING FEVER” (Inbiose N.V., priority 2023, published 2026).
# Columns and labels:
# acute pneumonia = assay: Acute pneumonia incidence in calves fed 2′FL-supplemented calf milk replacer versus placebo (standard CMR); type: in vivo, Holstein Friesian calves (bovine)
# Protocol: (§1) Holstein Friesian calves (2-3 week-old, 95% male) were transported from different farms to the experimental facility of Denkavit (Voorthuizen, The Netherlands) where the animals were reared. The experiment was performed in two trial rounds.
# (§2) The calves were randomly and gender-equally divided in two groups based on experimental calf milk replacer: group A (placebo-standard calf milk replacer (CMR) powder of the farm) and group B (standard CMR powder supplemented with 0.005% drywt. 2′-fucosyllactose (2′FL, see Example 1). The calf milk replacer was administered as a liquid to the calves (water was added to the CMR powder to obtain 150 gram CMR powder per liter liquid CMR). Each group involved […], assigned into 12 rows. Each row contained 4 pens, where six calves were living in one pen.
# (§3) 2′-fucosyllactose was supplied to calves via CMR (major components are presented in Table 1) during the whole trial, lasting 6 months. The Start CMR was given from arrival till week 6, which then switched to the Gold Alfa CMR up to day 136. The remaining time calves were fed with the Omega CMR. Solid feed (concentrates) was introduced gradually from arrival, starting with the Avance Alfa up till day 126, then replaced by the Avance Omega till the end of the experiment. Feed was provided ad libitum to calves twice a day (morning and evening) and were recorded daily based on rows (concentrates, straw, corn silage) or groups (CMR) consumption.
# (§4) The calves were randomly and gender-equally divided in two groups based on experimental calf milk replacer (CMR): group A (placebo-standard CMR powder of the farm), group B (standard CMR powder supplemented with 0.005% drywt. 2′FL). The calf milk replacer was administered as a liquid to the calves (water was added to the CMR powder to obtain 150 gram CMR powder per liter liquid CMR). Each group involved 100 calves, assigned into four rows (25 calves per row) of two compartment blocks. Each row contained five pens, where four to six calves were living in one pen.
# (§5) Starting from the day of arrival, calves received standard calf milk replacer (CMR) during a period of 9 weeks. Group A only received the CMR, while the CMR supplied to groups B was supplemented with 0.005% drywt. 2′FL. Calf starter (concentrates) and straw were introduced gradually from day 6 till the end of the experiment (12 weeks) while calves had access to corn silage at weeks 11 and 12. Feed were provided ad libitum to calves twice a day (morning and evening) and were recorded daily based on rows (concentrates, straw, corn silage) or groups (CMR) consumption.
# Calves were followed up by the farm staffs since arrival till the end of the trial. Fecal consistency in scale 1-4 (Larson et al., 1977, J. Dairy Science, 60 (6): p. 989-991) was recorded daily for the first ten days since arrival. Number of mortalities and signs of adverse effects were registered daily. The animals were treated prophylactically or metaphylactically (herd treatment) with 1 g oxytetracycline 100% (at day 4), 0.5 g Doxylin 50% WSP and 0.8 g bromhexine 2% (at day 13), and 3.1 ml Tilmicosol 250 mg/ml (at day 24) to prevent and/or treat acute lung inflammation. Individual treatments were followed by remark of the farm staffs and diagnostic of farm veterinary practitioners. Disease incidences and medicinal usage based on individual treatments were recorded to compare between treatment groups. Live weight of the animals was monitored at arrival (d1), two weeks (W2), six weeks (W6), ten weeks (W10) and 12 weeks (W12) and 17 weeks (W17) since arrival. Feed conversion ratio (FCR) of each period was computed based on the input of daily weight gain and daily feed intake. […]
# diarrhea = assay: Diarrhea incidence in calves fed 2′FL-supplemented calf milk replacer versus placebo (standard CMR); type: in vivo, Holstein Friesian calves (bovine); conditions: for Diarrhea cases: group B, 0.005% drywt. 2′FL in CMR
# Protocol: as §1, §2, §3
# The calves were randomly and gender-equally divided in two groups based on experimental calf milk replacer (CMR): group A (placebo-standard CMR powder of the farm), group B (standard CMR powder supplemented with 0.005% drywt. 2′FL). […]
# Starting from the day of arrival, calves received standard calf milk replacer (CMR) during a period of 9 weeks. […] Feed were provided ad libitum to calves twice a day (morning and evening) and were recorded daily based on rows (concentrates, straw, corn silage) or groups (CMR) consumption.
# Calves were followed up by the farm staffs since arrival till the end of the trial. Fecal consistency in scale 1-4 (Larson et al., 1977, J. Dairy Science, 60 (6): p. 989-991) was recorded daily for the first ten days since arrival. […] Disease incidences and medicinal usage based on individual treatments were recorded to compare between treatment groups. Live weight of the animals was monitored at arrival (d1), two weeks (W2), six weeks (W6), ten weeks (W10) and 12 weeks (W12) and 17 weeks (W17) since arrival. […]
# (§6) Odds ratios and risk ratios of the pneumonia and diarrhea incidence were evaluated with the epitools R package using the Wald test (cran.r-project.org/web/packages/epitools/epitools.pdf). […]
# [1] = Mortality and adverse effects in calves (health and safety observation); type: in vivo, Holstein Friesian calves (bovine)
# Protocol: as §1, §2, §3, §4, §5
# Calves were followed up by the farm staffs since arrival till the end of the trial. Fecal consistency in scale 1-4 (Larson et al., 1977, J. Dairy Science, 60 (6): p. 989-991) was recorded daily for the first ten days since arrival. Number of mortalities and signs of adverse effects were registered daily. […] Disease incidences and medicinal usage based on individual treatments were recorded to compare between treatment groups. Live weight of the animals was monitored at arrival (d1), two weeks (W2), six weeks (W6), ten weeks (W10) and 12 weeks (W12) and 17 weeks (W17) since arrival. […]
# as §6
# jejunum = assay: Jejunal RNAseq (transcriptomics), Gene Ontology enrichment analysis of differentially expressed genes, 2′FL versus placebo; type: in vivo, Bos taurus (calves); conditions: day 71 (W11)
# Protocol: One healthy and middle weight calf of one pen per group was picked for euthanization in the slaughterhouse at day 71 (W11) (8 calves in total, 4 per group). A 20 cm segment of jejunum without Peyer's patch was excised and washed three times with physiological serum using a 30 ml syringe. A small segment (2-3 mm) was further excised and stored in 2 ml RNA protect tissue reagent (Qiagen) containing RNA preservation buffer for transportation at room temperature before long-term storage at −80° C.
# Jejunal specimens stored in RNA protect tissue reagent were excised further to transfer 50 mg tissue into 2 ml tubes. The tissues were disrupted and homogenized using one stainless steel bead 5 mm in 900 μl QIAzol lysis reagent (QIAgen) in combination with a FASTPREP® 24 device. The homogenates were further manipulated according to the guidance of the manufacturer of the RNeasy plus universal tissue mini kit (QIAgen). The total purified RNA were eluted in 40 μl and quickly checked for the concentration and quality using Nanodrop (Implen NANOPHOTOMETER®) before storage at −80° C.
# Total RNA was submitted to Azenta (Genewiz, Germany) to perform RNA sequencing. The total RNA was checked again for quality and concentration using Qubit and fragment analyzer before the mRNA were selected for polyA library preparation and sequenced using the ILLUMINA® Novaseq™ 2×150 bp technology platform guaranteed 20 million paired-end reads per samples (40 million reads).
# RNA sequencing reads were quality-checked with fastqc (bioinformatics.babraham.ac.uk/projects/fastqc/) and trimmed with Trimmomatic (Bolger et al., 2014, Bioinformatics 30 (15): p. 2114-2120). Reads were aligned to the cow reference (Bos_taurus_UMD_3.1.1) using the genome alignment method in STAR (Dobin et al., 2013, Bioinformatics 29 (1): p. 15-21); Gene expression was quantified by featureCounts (Liao et al., 2014, Bioinformatics 30 (7): p. 923-930) and differential expression analysis was performed using DEseq2 (Love et al., 2014, Genome Biol. 15 (2): 550). Enrichment analysis of differential expressed was done in clusterProfiler (Wu et al., 2021, Innovation 2 (3): 100141) based on Gene Ontology.
substance,measurement,setting,value
2′-fucosyllactose [2′FL],"Relative risk of getting acute pneumonia, group B versus placebo","acute pneumonia; round 1 (veal calf), 0.005% drywt. 2′FL in CMR",0.86
same,Acute pneumonia cases,"acute pneumonia; round 1 (veal calf), group B, 0.005% drywt. 2′FL in CMR, 6 months, out of 290 calves, placebo 111 cases",96 cases
same,"Relative risk of getting acute pneumonia, group B versus placebo","acute pneumonia; round 2 (rearing calf), 0.005% drywt. 2′FL in CMR",0.63
same,Acute pneumonia cases,"acute pneumonia; round 2 (rearing calf), group B, 0.005% drywt. 2′FL in CMR for 9 weeks, 12-week trial, 100 calves per group, placebo 27 cases",17 cases
same,"Acute pneumonia cases, share of calves","acute pneumonia; round 2 (rearing calf), group B, placebo 27%",17%
same,Common odds ratio of acute pneumonia,"acute pneumonia; rounds 1 and 2 integrated, standard CMR (placebo) versus 2′FL supplemented CMR, Mantel-Haenszel",1.35
same,"Relative risk of getting diarrhea, group B versus placebo",diarrhea; round 1 (veal calf),0.71
same,Diarrhea cases,"diarrhea; round 1 (veal calf), out of 290 calves, placebo 51 cases",36 cases
same,Odds ratio associated with diarrhea,"diarrhea; round 1 (veal calf), standard CMR (placebo) versus 2′FL supplemented CMR",1.51
same,Diarrhea cases,"diarrhea; round 2 (rearing calf), 100 calves per group, placebo 1 case",0 cases
same,Adverse effects,"[1]; registered by the farm staffs, target animals (calves), both rounds",no adverse effects
same,Mortality,"[1]; round 1, 6 months, group B (2′FL), placebo 4.14%, 262800 min",3.1%
same,Calves dead,"[1]; round 1, 6 months, group B (2′FL), placebo 12 (4.14%)",9 calves
same,"Mortality, difference between groups","[1]; round 1, 6 months, Kaplan-Meier test",no significant difference in mortality between the experimental groups
same,"Mortality, difference between groups","[1]; round 2, 12 weeks, 7/400 calves died in all groups",no significant difference in mortality between the different groups
same,Immune responses versus placebo (enrichment analysis),jejunum; 4 calves per group,"enhanced immune responses in several ways (T cell activation, cell differentiation, cell-cell adhesion, adaptive immune response)"
same,"p. adjust, up-regulated gene ontology process ADAPTIVE_IMMUNE_RESPONSE",jejunum; group B versus placebo,4.15E−06
same,"p. adjust, up-regulated gene ontology process ADAPTIVE_IMMUNE_RESPONSE_BASED_ON_SOMATIC_RECOMBINATION_OF_IMMUNE_RECEPTORS_BUILT_FROM_IMMUNOGLOBULIN_SUPERFAMILY_DOMAINS",jejunum; group B versus placebo,0.00573
same,"p. adjust, up-regulated gene ontology process EXTERNAL_SIDE_OF_PLASMA_MEMBRANE",jejunum; group B versus placebo,0.000673
same,"p. adjust, up-regulated gene ontology process HETEROTYPIC_CELL_CELL_ADHESION",jejunum; group B versus placebo,0.003478
same,"p. adjust, up-regulated gene ontology process LEUKOCYTE_DIFFERENTIATION",jejunum; group B versus placebo,0.003462
same,"p. adjust, up-regulated gene ontology process LYMPHOCYTE_MEDIATED_IMMUNITY",jejunum; group B versus placebo,0.003478
same,"p. adjust, up-regulated gene ontology process MONONUCLEAR_CELL_DIFFERENTIATION",jejunum; group B versus placebo,0.000274
same,"p. adjust, up-regulated gene ontology process NEGATIVE_REGULATION_OF_ADAPTIVE_IMMUNE_RESPONSE",jejunum; group B versus placebo,0.002368
same,"p. adjust, up-regulated gene ontology process NEGATIVE_REGULATION_OF_IMMUNE_SYSTEM_PROCESS",jejunum; group B versus placebo,0.001169
same,"p. adjust, up-regulated gene ontology process NEGATIVE_REGULATION_OF_LEUKOCYTE_MEDIATED_IMMUNITY",jejunum; group B versus placebo,0.002368
same,"p. adjust, up-regulated gene ontology process NEGATIVE_REGULATION_OF_LYMPHOCYTE_MEDIATED_IMMUNITY",jejunum; group B versus placebo,0.00552
same,"p. adjust, up-regulated gene ontology process POSITIVE_THYMIC_T_CELL_SELECTION",jejunum; group B versus placebo,0.00573
same,"p. adjust, up-regulated gene ontology process POSITIVE_T_CELL_SELECTION",jejunum; group B versus placebo,0.003206
same,"p. adjust, up-regulated gene ontology process REGULATION_OF_ADAPTIVE_IMMUNE_RESPONSE",jejunum; group B versus placebo,0.003206
same,"p. adjust, up-regulated gene ontology process REGULATION_OF_LEUKOCYTE_MEDIATED_IMMUNITY",jejunum; group B versus placebo,0.003478
same,"p. adjust, up-regulated gene ontology process REGULATION_OF_T_CELL_ACTIVATION",jejunum; group B versus placebo,0.003668
same,"p. adjust, up-regulated gene ontology process T_CELL_ACTIVATION",jejunum; group B versus placebo,9.06E−06
same,"p. adjust, up-regulated gene ontology process T_CELL_DIFFERENTIATION",jejunum; group B versus placebo,0.000662
same,"p. adjust, up-regulated gene ontology process T_CELL_PROLIFERATION",jejunum; group B versus placebo,0.002368
same,"p. adjust, up-regulated gene ontology process T_CELL_RECEPTOR_COMPLEX",jejunum; group B versus placebo,0.000274
